Laboratory results from US20230339937A1, “CONDENSED RING COMPOUNDS THAT INHIBIT H-PGDS” (SATO PHARMACEUTICAL CO., LTD., priority 2020, published 2023).

Target: T1, Recombinant human H-PGDS (Homo sapiens, UniProt O60760)
T1 construct: made in house; host or cells: E. coli
Test: H-PGDS inhibitory activity (prostaglandin D2 production from prostaglandin H2, measured by LC-MS/MS)
Format: biochemical
Conditions: recombinant human H-PGDS 1.0 nM expressed in E. coli; prostaglandin H2 25 μM; preincubated 15 minutes on ice, reacted on ice for 1 minute; concentration that inhibits prostaglandin D2 production by 50%
Method in brief: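 Recombinant human H-PGDS (E. coli-expressed, 1.0 nM final) preincubated with compound 15 min on ice in 20 mM Tris-HCl pH 8.0, 2 mM MgCl2, 2 mM GSH, 0.5 mg/mL γ-globulin. Reaction with 25 µM PGH2 run 1 min on ice, stopped with FeCl2/citric acid, PGD2 quantified by LC-MS/MS. Activity expressed as % of DMSO control after subtracting non-enzymatic PGD2.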

T1 sequence (O60760 whole entry): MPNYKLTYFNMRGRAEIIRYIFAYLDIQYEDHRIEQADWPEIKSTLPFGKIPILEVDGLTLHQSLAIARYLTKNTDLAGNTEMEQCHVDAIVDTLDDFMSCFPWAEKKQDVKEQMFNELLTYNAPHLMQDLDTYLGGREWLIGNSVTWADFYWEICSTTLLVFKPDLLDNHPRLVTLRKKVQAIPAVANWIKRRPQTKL

IC50 [nM] | Structure (SMILES)
1.2 | Cc1cc(=O)[nH]c(N2CCC(NC(=O)c3ccc(-c4nccc5occc45)cc3)CC2)n1 [Example 181, 4-(furo[3,2-c]pyridin-4-yl)-N-[1-(4-methyl-6-oxo-1,6-dihydropyrimidin-2-yl)piperidin-4-yl]benzamide]
1.9 | CC(C)[C@]1(O)CC[C@@H](NC(=O)c2ccc(-c3nccc4occc34)cc2)CC1 [Example 292, 4-(furo[3,2-c]pyridin-4-yl)-N-(cis-4-hydroxy-4-isopropylcyclohexyl)benzamide]
4.3 | CC(=O)[C@@H]1CC[C@@H](NC(=O)c2ccc(-c3nccc4occc34)cc2)CO1 [Example 213, N-[(3R,6S)-6-acetyltetrahydro-2 H-pyran-3-yl]-4-(furo[3,2-c]pyridin-4-yl)benzamide]
15 | CC(O)CNC(=O)c1ccc(-c2nccc3occc23)cc1 (stereo not shown) [Example 68, 4-(furo[3,2-c]pyridin-4-yl)-N-(2-hydroxypropyl) benzamide]
51 | CC(C)(O)[C@H]1CC[C@H](NC(=O)c2ccc(-c3nc(C#N)cc4occc34)cc2)CC1 [Example 317, 4-(6-cyanofuro[3,2-c]pyridin-4-yl)-N-[trans-4-(2-hydroxypropan-2-yl)cyclohexyl]benzamide]
11 | O=C(NCC1CCOC1)c1ccc(-c2nccc3occc23)cc1 (stereo not shown) [Example 81, 4-(furo[3,2-c]pyridin-4-yl)-N-[(tetrahydrofuran-3-yl)methyl] benzamide]
1.8 | CCCCCCNC(=O)c1ccc(-c2nccc3[nH]ccc23)cc1 [Example 6, N-hexyl-4-(1H-pyrrolo[3,2-c]pyridin-4-yl)benzamide]
1.6 | CC[C@]1(O)CC[C@H](NC(=O)c2ccc(-c3nccc4occc34)cc2)CC1 [Example 289, N-(trans-4-ethyl-4-hydroxycyclohexyl)-4-(furo[3,2-c]pyridin-4-yl)benzamide]
1.2 | Cc1cc2occc2c(-c2ccc(C(=O)NC3CCN(C(=O)C4CC4)CC3)cc2)n1 [Example 335, N-[1-(cyclopropanecarbonyl)piperidin-4-yl]-4-(6-methylfuro[3,2-c]pyridin-4-yl)benzamide]
2 | CN(C)c1ccnc(N2CCC(NC(=O)c3ccc(-c4nccc5occc45)cc3)CC2)n1 [Example 161, N-{1-[4-(dimethylamino)pyrimidin-2-yl]piperidin-4-yl}-4-(furo[3,2-c]pyridin-4-yl)benzamide]
2.3 | Cc1cccc(N2CCC(NC(=O)c3ccc(-c4nccc5occc45)cc3)CC2)n1 [Example 152, 4-(furo[3,2-c]pyridin-4-yl)-N-[1-(6-methylpyridin-2-yl)piperidin-4-yl]benzamide]
1.3 | O=C(N[C@H]1CC[C@H](NCC(F)F)CC1)c1ccc(-c2nccc3occc23)c(F)c1 [Example 326, N-{trans-4-[(2,2-difluoroethyl)amino]cyclohexyl}-3-fluoro-4-(furo[3,2-c]pyridin-4-yl)benzamide]
8 | O=C(Nc1cc(C2CC2)[nH]n1)c1ccc(-c2nccc3occc23)cc1 [Example 104, N-(5-cyclopropyl-1H-pyrazol-3-yl)-4-(furo[3,2-c]pyridin-4-yl)benzamide]
2.3 | O=C(NC1CCN(c2ncc(Br)c(=O)[nH]2)CC1)c1ccc(-c2nccc3occc23)cc1 [Example 182, N-[1-(5-bromo-6-oxo-1,6-dihydropyrimidin-2-yl)piperidin-4-yl]-4-(furo[3,2-c]pyridin-4-yl)benzamide]
0.56 | COCCCNC(=O)c1ccc(-c2nccc3[nH]ccc23)cc1 [Example 24, N-(3-methoxypropyl)-4-(1H-pyrrolo[3,2-c]pyridin-4-yl)benzamide]
0.85 | O=C(NCC1CCOCC1)c1ccc(-c2nccc3[nH]ccc23)cc1 [Example 22, 4-(1H-pyrrolo[3,2-c]pyridin-4-yl)-N-[(tetrahydro-2H-pyran-4-yl)methyl] benzamide]

IC50 [nM] | Structure (SMILES)
3.4 | CCC(=O)N[C@H]1CC[C@H](NC(=O)c2ccc(-c3nccc4occc34)cc2)CC1 [Example 298, 4-(furo[3,2-c]pyridin-4-yl)-N-(trans-4-propionamidocyclohexyl)benzamide]
1.2 | O=C(N[C@H]1CCN(c2cccnn2)C1)c1ccc(-c2nccc3occc23)cc1 [Example 230, (S)-4-(furo[3,2-c]pyridin-4-yl)-N-[1-(pyridazin-3-yl)pyrrolidin-3-yl]benzamide]
0.74 | Cc1c(CNC(=O)c2ccc(-c3nccc4[nH]ccc34)cc2)cnn1C [Example 42, N-[(1,5-dimethyl-1H-pyrazol-4-yl)methyl]-4-(1H-pyrrolo[3,2-c]pyridin-4-yl)benzamide]
12 | O=C(NCc1ccccc1Cl)c1ccc(-c2nccc3occc23)cc1 [Example 71, N-(2-chlorobenzyl)-4-(furo[3,2-c]pyridin-4-yl)benzamide]
1.1 | CCC(O)CNC(=O)c1ccc(-c2nccc3[nH]ccc23)cc1 (stereo not shown) [Example 33, N-(2-hydroxybutyl)-4-(1H-pyrrolo[3,2-c]pyridin-4-yl)benzamide]
1 | CC(C)(O)[C@H]1CC[C@H](NC(=O)c2ccc(-c3nccc4[nH]ccc34)c(F)c2)CC1 [Example 340, 3-fluoro-N-[trans-4-(2-hydroxypropan-2-yl)cyclohexyl]-4-(1H-pyrrolo[3,2-c]pyridin-4-yl)benzamide]
1.6 | Cn1nnnc1N1CCC(NC(=O)c2ccc(-c3nccc4occc34)cc2)CC1 [Example 99, 4-(furo[3,2-c]pyridin-4-yl)-N-[1-(1-methyl-1H-tetrazol-5-yl)piperidin-4-yl]benzamide]
1.2 | NC(=O)c1cc(N2CCC(NC(=O)c3ccc(-c4nccc5occc45)cc3)CC2)ccn1 [Example 176, 4-{4-[4-(furo[3,2-c]pyridin-4-yl)benzamide]piperidin-1-yl}picolinamide]
2.1 | O=C(NC1CCN(c2ncc(CO)cn2)CC1)c1ccc(-c2nccc3occc23)cc1 [Example 160, 4-(furo[3,2-c]pyridin-4-yl)-N-{1-[5-(hydroxymethyl)pyrimidin-2-yl]piperidin-4-yl}benzamide]
1.7 | Cc1cc2occc2c(-c2ccc(C(=O)N[C@H]3CC[C@](C)(O)CC3)cc2)n1 [Example 344, N-(trans-4-hydroxy-4-methylcyclohexyl)-4-(6-methylfuro[3,2-c]pyridin-4-yl)benzamide]
1.2 | N#Cc1cnc(N2CC[C@H](NC(=O)c3ccc(-c4nccc5occc45)cc3)C2)nc1 [Example 201, (S)—N-[1-(5-cyanopyrimidin-2-yl)pyrrolidin-3-yl]-4-(furo[3,2-c]pyridin-4-yl)benzamide]
0.78 | N#Cc1ccnc(N2CCC(NC(=O)c3ccc(-c4nccc5occc45)cc3)CC2)n1 [Example 164, N-[1-(4-cyanopyrimidin-2-yl)piperidin-4-yl]-4-(furo[3,2-c]pyridin-4-yl)benzamide]
6.4 | O=C(N[C@@H]1CC[C@@H](O)C1)c1ccc(-c2nccc3occc23)cc1 (relative stereo) [Example 268, 4-(furo[3,2-c]pyridin-4-yl)-N-(trans-3-hydroxycyclopenthyl)benzamide]
12 | O=C(NCc1ccc(Cl)cc1)c1ccc(-c2nccc3occc23)cc1 [Example 70, N-(4-chlorobenzyl)-4-(furo[3,2-c]pyridin-4-yl)benzamide]
1.1 | O=C(NC1CCN(c2ccccc2)CC1)c1ccc(-c2nccc3occc23)cc1 [Example 115, 4-(furo[3,2-c]pyridin-4-yl)-N-(1-phenylpiperidin-4-yl)benzamide]
